Laboratory results taken from ChEMBL document CHEMBL4346735, “Discovery and pharmacological evaluation of indole derivatives as potent and selective RORγt inverse agonist for multiple autoimmune conditions” (Bioorg Med Chem Lett, 2019).
Calls of active or inactive are those of the source. The calls are words filed in the database; no cut-off is given here.

Legend:
Cytochrome P450 2C9 = Cytochrome P450 2C9 (Homo sapiens, UniProt P11712); assay: Inhibition of CYP2C9 in human liver microsomes using diclofenac as substrate preincubated for 5 mins followed by NADPH addition measured after 10 mins by LC-MS/MS analysis
Chain of Cytochrome P450 2C9 (P11712 whole entry): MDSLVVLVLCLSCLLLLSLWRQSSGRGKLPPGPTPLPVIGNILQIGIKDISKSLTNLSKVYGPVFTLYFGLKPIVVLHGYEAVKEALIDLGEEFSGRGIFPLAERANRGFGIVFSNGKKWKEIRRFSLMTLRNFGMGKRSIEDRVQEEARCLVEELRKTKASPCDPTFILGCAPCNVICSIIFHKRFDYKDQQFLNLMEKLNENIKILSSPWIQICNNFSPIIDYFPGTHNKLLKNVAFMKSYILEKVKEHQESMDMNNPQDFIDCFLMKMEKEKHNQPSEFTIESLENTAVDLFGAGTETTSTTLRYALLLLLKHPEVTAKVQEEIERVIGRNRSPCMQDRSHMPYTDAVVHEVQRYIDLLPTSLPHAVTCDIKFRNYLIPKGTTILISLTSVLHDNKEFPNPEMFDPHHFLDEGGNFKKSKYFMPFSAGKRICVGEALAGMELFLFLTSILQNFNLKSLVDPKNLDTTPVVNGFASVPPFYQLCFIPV

[1] = AUC (0 to 24 hrs) in mouse at 10 mg/kg, po; assay type: ADME, organism-based; design: dose 10 mg/kg, time < 24 hr, route oral; conditions: in vivo, 24 h
[2] = Metabolic stability in human liver microsomes assessed as parent compound remaining at 1 uM preincubated for 5 mins followed by NADPH addition after 30 mins by LC-MS/MS analysis; assay type: ADME, Microsome; conditions: read-out: Stability
Mus musculus [3] = assay: Immunosuppressive activity in MOG (35 to 55 residues)/pertussis toxin-induced experimental allergic encephalomyelitis C57BL/6J mouse model assessed as reduction in disease severity score at 10 mg/kg, po qd measured at day 21 relative to dexamethasone; assay type: functional; conditions: 504 h
Cytochrome P450 1A2 = biological target: T1, Cytochrome P450 1A2 (Homo sapiens, UniProt P05177); assay: Inhibition of CYP1A2 in human liver microsomes using phenacetin as substrate preincubated for 5 mins followed by NADPH addition measured after 10 mins by LC-MS/MS analysis
T1 sequence (P05177 whole entry): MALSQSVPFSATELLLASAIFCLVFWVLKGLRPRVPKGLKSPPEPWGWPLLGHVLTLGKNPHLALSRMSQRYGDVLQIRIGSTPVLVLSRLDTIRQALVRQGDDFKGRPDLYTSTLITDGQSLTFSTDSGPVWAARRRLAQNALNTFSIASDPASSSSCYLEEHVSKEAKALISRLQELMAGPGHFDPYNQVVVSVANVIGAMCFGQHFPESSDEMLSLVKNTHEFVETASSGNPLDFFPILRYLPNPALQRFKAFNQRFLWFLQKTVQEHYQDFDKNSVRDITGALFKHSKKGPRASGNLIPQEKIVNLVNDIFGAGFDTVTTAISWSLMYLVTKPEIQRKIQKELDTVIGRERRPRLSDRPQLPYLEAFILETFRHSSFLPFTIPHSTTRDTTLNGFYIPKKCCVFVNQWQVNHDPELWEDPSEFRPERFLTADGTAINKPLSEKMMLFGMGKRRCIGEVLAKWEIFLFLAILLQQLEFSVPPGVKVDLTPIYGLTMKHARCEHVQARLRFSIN

Mus musculus [4] = organism: Mus musculus; conditions: C57BL/6J, at 10 mg/kg
Description: Immunosuppressive activity in MOG (35 to 55 residues)/pertussis toxin-induced experimental allergic encephalomyelitis C57BL/6J mouse model assessed as reduction in IL-17 production of CNS infiltrating CD4+ Th17 cells at 10 mg/kg, po qd by intracellular staining method

Mus musculus [5] = assay: Immunosuppressive activity in MOG (35 to 55 residues)/pertussis toxin-induced experimental allergic encephalomyelitis C57BL/6J mouse model assessed as IFN-gamma production of CNS infiltrating CD4+ Th1 cells at 10 mg/kg, po qd by intracellular staining method; assay type: functional, organism-based
Cytochrome P450 2C19 = Cytochrome P450 2C19 (Homo sapiens, UniProt P33261); assay: Inhibition of CYP2C19 in human liver microsomes using (S)-mephenytoin as substrate preincubated for 5 mins followed by NADPH addition measured after 40 mins by LC-MS/MS analysis
Chain of Cytochrome P450 2C19 (P33261 whole entry): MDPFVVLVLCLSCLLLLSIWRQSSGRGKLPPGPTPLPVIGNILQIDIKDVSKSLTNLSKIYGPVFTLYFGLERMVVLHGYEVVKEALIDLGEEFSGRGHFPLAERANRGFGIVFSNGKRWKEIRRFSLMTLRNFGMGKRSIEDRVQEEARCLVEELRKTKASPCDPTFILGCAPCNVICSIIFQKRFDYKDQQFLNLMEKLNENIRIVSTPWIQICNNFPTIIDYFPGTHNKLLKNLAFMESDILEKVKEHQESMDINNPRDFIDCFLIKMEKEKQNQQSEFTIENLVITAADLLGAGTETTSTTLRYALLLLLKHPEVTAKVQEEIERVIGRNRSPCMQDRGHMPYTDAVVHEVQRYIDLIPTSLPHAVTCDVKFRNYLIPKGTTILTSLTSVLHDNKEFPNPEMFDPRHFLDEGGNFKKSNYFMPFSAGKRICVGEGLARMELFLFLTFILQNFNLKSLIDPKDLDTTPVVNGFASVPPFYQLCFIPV

[6] = Oral bioavailability in mouse at 10 mg/kg; assay type: ADME, organism-based; conditions: in vivo
[7] = Metabolic stability in rat liver microsomes assessed as parent compound remaining at 1 uM preincubated for 5 mins followed by NADPH addition after 30 mins by LC-MS/MS analysis; assay type: ADME, Microsome; conditions: read-out: Stability
Cytochrome P450 3A4 = Cytochrome P450 3A4 (Homo sapiens, UniProt P08684); assay: Inhibition of CYP3A4 in human liver microsomes using testosterone as substrate preincubated for 5 mins followed by NADPH addition measured after 10 mins by LC-MS/MS analysis
Chain of Cytochrome P450 3A4 (P08684 whole entry): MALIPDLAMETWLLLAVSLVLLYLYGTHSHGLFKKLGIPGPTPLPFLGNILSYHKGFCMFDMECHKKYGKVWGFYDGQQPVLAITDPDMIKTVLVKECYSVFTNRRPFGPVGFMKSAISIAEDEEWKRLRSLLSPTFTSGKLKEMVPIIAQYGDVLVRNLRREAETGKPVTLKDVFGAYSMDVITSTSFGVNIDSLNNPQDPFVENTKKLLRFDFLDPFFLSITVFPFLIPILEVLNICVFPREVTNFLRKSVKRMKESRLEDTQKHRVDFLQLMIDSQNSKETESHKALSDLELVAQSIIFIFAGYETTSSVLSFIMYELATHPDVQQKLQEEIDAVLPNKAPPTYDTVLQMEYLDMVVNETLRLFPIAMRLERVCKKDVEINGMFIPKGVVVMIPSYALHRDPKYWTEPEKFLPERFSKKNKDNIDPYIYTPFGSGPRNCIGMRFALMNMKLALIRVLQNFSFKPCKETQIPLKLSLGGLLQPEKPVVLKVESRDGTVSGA

[8] = Tmax in mouse at 10 mg/kg, po; assay type: ADME, organism-based; conditions: in vivo
[9] = Half life in mouse at 3 mg/kg, iv; assay type: ADME, organism-based; conditions: in vivo
Mus musculus [10] = assay: Immunosuppressive activity in MOG (35 to 55 residues)/pertussis toxin-induced experimental allergic encephalomyelitis C57BL/6J mouse model assessed as decrease in ratio of Th17:Th1 at 10 mg/kg, po qd by intracellular staining method; assay type: functional, organism-based
[11] = Cmax in mouse at 10 mg/kg, po; assay type: ADME, organism-based; design: dose 10 mg/kg, route oral; conditions: in vivo
[12] = Metabolic stability in mouse liver microsomes assessed as parent compound remaining at 1 uM preincubated for 5 mins followed by NADPH addition after 30 mins by LC-MS/MS analysis; assay type: ADME, Microsome; conditions: read-out: Stability
[13] = Volume of distribution at steady state in mouse at 3 mg/kg, iv; assay type: ADME, organism-based; conditions: in vivo, read-out: Vdss

SMILES: CCS(=O)(=O)c1ccc(CC(=O)Nc2cc(Cl)c(-c3ccccc3OC(F)(F)F)c(Cl)c2)cc1
- IC50 (Cytochrome P450 2C9): 2.1 µM
- AUC [1]: 22.3 µM·h
- remaining at 0.5 h, 1 µM [2]: 100%
- inhibition in vivo at 10 mg/kg (Mus musculus [3]): 24%
- IC50 (Cytochrome P450 1A2): > 50 µM
- inhibition (Mus musculus [4]): Active
- inhibition (Mus musculus [5]): inactive
- IC50 (Cytochrome P450 2C19): 9.6 µM
- F [6]: 79%
- remaining at 0.5 h, 1 µM [7]: 65%
- IC50 (Cytochrome P450 3A4): > 50 µM
- Tmax [8]: 2 h
- half-life [9]: 10.7 h
- inhibition (Mus musculus [10]): Active
- Cmax [11]: 3000 nM
- remaining at 0.5 h, 1 µM [12]: 70%
- Vd [13]: 3.5 L/kg
